Results reported in US5721223A, “Imidazo[1,2-a] Pyridinyldiacid compounds for cognitive enhancement and for treatment of cognitive disorders and neurotoxic injury” (priority 1995, dated 1998).
Structures can show the parent of a compound that is named as a salt.

Biological target: T1, glycine receptor site (Rattus norvegicus, UniProt P35439)
T1 construct: Synaptic plasma membranes (SPM) were prepared from rat forebrain; from tissue; host or cells: rat forebrain synaptic plasma membranes
Experiment: Glycine binding assay ([3H]GLY)
Details: [3H]glycine 10 nM, rat forebrain SPM
Method: Synaptic plasma membranes (SPM) were prepared from rat forebrain and stored as previously described [J. B. Monahan and J. Michel, J. Neurochem, 48, 1699-1708 (1987)]. Frozen membranes were thawed and diluted 1:20 with 0.04% Triton X-100 in 50 mM tris/acetate (pH 7.4). Following incubation at 37° C. for 30 min., the SPM were collected by centrifugation at 95,000×g for 15 min. The pellet was resuspended in 50 mM tris/acetate (pH 7.4, Triton-free) and hand-homogenized five times. The membranes were again centrifuged as above. The pellet was washed two additional times with 50 mM tris/acetate (without homogenization) and centrifuged. The final pellet was resuspended with homogenization in 50 mM tris/acetate. In the general receptor binding assay procedure, 10 nM [3H]glycine was added to the appropriate concentration of the test compounds and the assay initiated by the addition of 0.2-0.4 mg of ice cold SPM. […] Beckman MP scintillation cocktail (5 mL) containing 7 mL/liter acetic acid was then added and the samples counted on a Beckman LS 5800 liquid scintillation counter with automatic corrections for quenching and counting efficiency. […] The binding of [3H]glycine to the SPM was analyzed using Scatchard and Hill transformations and the Ki for other compounds was determined using logit-log analysis. […]

**Q.** For `O=C(O)Cc1c(C(=O)O)nc2ccccn12` [Example 3, hydrochloride], which Ki is on record?
**A.** 51 µM
